The target in one assay is Mu-type opioid receptor (Homo sapiens, UniProt P35372). Nature of the assay: biochemical. In kind it is functional.
Assay [1] has as its target T1, Corticotropin-releasing factor receptor 1 (Homo sapiens, UniProt P34998).
T1 sequence (P34998 whole entry): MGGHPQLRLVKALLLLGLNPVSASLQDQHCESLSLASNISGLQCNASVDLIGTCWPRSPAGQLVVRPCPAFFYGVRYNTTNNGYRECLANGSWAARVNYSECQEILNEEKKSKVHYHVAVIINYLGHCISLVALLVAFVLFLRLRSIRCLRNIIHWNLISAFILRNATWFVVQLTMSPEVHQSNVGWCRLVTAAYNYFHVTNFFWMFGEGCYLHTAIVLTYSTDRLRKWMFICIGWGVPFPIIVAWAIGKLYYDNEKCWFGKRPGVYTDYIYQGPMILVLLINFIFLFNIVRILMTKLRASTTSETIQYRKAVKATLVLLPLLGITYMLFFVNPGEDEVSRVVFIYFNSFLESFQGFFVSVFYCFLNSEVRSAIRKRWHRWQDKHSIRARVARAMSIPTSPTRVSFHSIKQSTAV

Assay [2] has as its target Sodium channel protein type 5 subunit alpha (Homo sapiens, UniProt Q14524). In kind it is functional, cell-based.
For assay [3], the target named is T2, 5-hydroxytryptamine receptor 1A (Homo sapiens, UniProt P08908).
T2 sequence (P08908 whole entry): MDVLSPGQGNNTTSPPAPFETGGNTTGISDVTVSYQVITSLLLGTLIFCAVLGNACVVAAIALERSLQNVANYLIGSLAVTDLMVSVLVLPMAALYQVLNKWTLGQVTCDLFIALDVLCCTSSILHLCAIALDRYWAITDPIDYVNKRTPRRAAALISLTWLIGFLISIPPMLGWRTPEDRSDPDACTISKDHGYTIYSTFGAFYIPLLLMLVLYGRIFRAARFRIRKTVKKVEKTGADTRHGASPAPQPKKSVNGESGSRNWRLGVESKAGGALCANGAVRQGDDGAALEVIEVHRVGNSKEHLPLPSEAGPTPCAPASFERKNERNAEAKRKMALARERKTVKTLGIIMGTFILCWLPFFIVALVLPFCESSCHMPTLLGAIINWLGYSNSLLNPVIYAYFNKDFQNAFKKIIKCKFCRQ

The target of the next assay is T3, Androgen receptor (Rattus norvegicus, UniProt P15207).
T3 sequence (P15207 whole entry): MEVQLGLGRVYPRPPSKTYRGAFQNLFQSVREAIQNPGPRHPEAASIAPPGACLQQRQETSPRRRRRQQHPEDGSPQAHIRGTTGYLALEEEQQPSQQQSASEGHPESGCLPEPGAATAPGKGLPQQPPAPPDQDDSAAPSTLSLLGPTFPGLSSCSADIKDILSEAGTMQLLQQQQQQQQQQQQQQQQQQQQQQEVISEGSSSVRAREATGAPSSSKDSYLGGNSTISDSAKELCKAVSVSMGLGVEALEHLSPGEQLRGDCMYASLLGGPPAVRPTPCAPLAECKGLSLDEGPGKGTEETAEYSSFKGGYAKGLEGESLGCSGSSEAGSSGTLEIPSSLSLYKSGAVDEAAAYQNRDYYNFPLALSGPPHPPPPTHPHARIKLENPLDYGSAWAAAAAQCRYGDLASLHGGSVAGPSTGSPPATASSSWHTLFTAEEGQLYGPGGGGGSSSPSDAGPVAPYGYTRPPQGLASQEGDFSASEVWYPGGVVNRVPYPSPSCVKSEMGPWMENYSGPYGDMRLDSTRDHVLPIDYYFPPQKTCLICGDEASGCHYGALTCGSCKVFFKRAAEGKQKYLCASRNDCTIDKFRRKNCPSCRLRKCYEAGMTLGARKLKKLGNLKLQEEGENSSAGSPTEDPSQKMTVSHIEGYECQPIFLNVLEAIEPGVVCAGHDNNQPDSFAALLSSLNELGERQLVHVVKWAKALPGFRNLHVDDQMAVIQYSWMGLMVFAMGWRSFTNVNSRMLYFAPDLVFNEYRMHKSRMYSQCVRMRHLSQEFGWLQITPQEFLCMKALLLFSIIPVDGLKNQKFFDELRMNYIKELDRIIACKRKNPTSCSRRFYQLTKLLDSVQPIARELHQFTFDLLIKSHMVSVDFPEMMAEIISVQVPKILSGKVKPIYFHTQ
In kind it is functional.

Assay [4] addresses Muscarinic acetylcholine receptor M3 (Homo sapiens, UniProt P20309).
Assay [5] concerns the target Gamma-aminobutyric acid receptor subunit alpha-1/alpha-2/beta-2/gamma-2 (Homo sapiens, UniProt P14867+P18507+P47869+P47870). In kind it is functional, cell-based.
A further assay concerns the target T4, Glucocorticoid receptor (Homo sapiens, UniProt P04150).
T4 sequence (P04150 whole entry): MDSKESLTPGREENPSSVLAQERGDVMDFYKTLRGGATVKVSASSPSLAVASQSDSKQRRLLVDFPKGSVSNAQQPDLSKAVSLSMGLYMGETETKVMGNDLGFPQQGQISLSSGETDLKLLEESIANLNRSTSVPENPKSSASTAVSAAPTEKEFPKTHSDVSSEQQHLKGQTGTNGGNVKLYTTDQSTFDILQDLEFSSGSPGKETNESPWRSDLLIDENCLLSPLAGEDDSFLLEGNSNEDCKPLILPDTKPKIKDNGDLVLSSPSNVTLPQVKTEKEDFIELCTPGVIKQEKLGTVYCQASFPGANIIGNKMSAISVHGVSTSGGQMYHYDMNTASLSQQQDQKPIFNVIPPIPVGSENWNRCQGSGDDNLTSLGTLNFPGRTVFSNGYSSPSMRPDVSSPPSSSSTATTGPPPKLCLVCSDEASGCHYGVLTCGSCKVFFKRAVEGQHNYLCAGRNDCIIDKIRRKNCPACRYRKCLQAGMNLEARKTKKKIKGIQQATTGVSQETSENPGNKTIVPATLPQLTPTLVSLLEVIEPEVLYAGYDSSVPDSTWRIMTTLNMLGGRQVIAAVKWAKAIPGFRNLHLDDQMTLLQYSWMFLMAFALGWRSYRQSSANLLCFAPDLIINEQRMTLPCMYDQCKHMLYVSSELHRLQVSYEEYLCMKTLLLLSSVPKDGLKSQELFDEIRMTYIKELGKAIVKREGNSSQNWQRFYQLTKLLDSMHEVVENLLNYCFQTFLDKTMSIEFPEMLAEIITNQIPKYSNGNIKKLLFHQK
In kind it is functional.

Molecules are shown by their SMILES.
Note: assay procedure not described here.

Sequence of Mu-type opioid receptor (P35372 whole entry): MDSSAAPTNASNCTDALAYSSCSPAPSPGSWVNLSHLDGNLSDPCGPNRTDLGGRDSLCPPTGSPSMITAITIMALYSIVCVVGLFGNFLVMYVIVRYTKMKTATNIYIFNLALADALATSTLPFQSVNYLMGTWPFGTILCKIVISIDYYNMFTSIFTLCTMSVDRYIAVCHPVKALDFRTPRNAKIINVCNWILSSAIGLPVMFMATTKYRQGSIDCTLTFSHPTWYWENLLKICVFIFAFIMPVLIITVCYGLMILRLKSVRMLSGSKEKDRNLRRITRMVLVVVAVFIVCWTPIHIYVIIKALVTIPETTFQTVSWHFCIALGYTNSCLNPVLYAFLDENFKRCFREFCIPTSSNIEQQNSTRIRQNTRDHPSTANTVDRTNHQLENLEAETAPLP
Sequence of Muscarinic acetylcholine receptor M3 (P20309 whole entry): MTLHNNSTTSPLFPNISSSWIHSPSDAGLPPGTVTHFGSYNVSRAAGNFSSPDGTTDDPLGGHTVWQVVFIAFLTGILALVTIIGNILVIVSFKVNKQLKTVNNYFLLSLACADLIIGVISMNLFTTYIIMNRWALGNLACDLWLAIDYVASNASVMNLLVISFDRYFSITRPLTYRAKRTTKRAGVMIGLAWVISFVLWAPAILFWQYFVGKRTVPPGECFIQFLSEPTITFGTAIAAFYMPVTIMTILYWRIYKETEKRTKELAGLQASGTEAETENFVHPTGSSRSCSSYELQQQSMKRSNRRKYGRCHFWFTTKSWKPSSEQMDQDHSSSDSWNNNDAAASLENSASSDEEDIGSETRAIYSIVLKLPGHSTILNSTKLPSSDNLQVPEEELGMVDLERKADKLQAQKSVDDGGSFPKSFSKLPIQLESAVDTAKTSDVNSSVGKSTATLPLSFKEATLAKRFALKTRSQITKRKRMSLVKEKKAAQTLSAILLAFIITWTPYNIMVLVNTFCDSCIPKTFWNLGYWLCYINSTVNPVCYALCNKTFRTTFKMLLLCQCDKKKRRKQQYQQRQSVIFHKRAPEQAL
Sequence of Gamma-aminobutyric acid receptor subunit alpha-1/alpha-2/beta-2/gamma-2 (P14867 whole entry): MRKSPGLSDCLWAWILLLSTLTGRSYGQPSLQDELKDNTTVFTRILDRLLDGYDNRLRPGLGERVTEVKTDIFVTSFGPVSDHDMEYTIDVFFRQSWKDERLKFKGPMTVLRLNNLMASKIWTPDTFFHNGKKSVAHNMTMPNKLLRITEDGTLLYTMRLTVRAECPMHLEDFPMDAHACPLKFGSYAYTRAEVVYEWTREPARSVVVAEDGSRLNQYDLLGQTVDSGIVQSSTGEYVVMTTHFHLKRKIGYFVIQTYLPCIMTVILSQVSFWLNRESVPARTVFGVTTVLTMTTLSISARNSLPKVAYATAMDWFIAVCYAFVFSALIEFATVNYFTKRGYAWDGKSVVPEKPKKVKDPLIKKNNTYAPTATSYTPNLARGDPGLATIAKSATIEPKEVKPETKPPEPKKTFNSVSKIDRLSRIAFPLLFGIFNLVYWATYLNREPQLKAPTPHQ
Sequence of Gamma-aminobutyric acid receptor subunit alpha-1/alpha-2/beta-2/gamma-2 (P47870 whole entry): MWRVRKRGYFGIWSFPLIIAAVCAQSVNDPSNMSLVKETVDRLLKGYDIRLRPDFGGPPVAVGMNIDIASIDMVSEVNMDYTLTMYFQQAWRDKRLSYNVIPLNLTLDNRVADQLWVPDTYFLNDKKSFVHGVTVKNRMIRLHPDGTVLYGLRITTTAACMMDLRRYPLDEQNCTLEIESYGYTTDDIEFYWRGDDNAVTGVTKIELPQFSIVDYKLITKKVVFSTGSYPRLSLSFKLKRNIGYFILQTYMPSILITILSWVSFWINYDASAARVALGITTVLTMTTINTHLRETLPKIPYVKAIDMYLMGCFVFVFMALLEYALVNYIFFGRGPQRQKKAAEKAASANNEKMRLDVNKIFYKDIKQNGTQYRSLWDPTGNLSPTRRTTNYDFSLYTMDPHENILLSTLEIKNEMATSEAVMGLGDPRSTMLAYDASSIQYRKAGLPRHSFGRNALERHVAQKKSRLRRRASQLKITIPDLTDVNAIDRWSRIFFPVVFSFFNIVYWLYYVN
Sequence of Gamma-aminobutyric acid receptor subunit alpha-1/alpha-2/beta-2/gamma-2 (P18507 whole entry): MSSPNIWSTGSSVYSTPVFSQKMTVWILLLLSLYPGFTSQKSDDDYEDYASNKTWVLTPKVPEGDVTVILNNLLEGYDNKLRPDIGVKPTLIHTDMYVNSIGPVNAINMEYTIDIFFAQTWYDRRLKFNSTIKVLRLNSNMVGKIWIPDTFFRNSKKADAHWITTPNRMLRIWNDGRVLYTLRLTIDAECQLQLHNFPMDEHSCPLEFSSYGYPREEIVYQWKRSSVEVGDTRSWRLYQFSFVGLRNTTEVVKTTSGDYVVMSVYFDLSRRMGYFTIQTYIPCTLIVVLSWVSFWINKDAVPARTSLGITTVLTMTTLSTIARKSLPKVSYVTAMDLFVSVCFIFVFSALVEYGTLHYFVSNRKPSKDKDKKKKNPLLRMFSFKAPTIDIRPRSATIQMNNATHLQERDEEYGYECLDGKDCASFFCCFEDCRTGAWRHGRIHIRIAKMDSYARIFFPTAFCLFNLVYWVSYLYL
Sequence of Gamma-aminobutyric acid receptor subunit alpha-1/alpha-2/beta-2/gamma-2 (P47869 whole entry): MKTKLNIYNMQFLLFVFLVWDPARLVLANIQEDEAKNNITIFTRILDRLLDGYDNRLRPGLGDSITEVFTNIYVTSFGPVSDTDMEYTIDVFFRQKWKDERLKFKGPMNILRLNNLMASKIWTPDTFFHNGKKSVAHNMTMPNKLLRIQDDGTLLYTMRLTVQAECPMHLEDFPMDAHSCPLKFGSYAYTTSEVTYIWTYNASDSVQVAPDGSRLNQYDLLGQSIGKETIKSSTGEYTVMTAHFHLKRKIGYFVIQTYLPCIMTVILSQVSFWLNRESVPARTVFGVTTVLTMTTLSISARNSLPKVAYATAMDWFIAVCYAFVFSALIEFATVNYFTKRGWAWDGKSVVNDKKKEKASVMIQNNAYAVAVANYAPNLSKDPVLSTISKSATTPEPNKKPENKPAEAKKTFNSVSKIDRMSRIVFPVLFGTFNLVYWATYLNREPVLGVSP
Sequence of Sodium channel protein type 5 subunit alpha (Q14524 whole entry): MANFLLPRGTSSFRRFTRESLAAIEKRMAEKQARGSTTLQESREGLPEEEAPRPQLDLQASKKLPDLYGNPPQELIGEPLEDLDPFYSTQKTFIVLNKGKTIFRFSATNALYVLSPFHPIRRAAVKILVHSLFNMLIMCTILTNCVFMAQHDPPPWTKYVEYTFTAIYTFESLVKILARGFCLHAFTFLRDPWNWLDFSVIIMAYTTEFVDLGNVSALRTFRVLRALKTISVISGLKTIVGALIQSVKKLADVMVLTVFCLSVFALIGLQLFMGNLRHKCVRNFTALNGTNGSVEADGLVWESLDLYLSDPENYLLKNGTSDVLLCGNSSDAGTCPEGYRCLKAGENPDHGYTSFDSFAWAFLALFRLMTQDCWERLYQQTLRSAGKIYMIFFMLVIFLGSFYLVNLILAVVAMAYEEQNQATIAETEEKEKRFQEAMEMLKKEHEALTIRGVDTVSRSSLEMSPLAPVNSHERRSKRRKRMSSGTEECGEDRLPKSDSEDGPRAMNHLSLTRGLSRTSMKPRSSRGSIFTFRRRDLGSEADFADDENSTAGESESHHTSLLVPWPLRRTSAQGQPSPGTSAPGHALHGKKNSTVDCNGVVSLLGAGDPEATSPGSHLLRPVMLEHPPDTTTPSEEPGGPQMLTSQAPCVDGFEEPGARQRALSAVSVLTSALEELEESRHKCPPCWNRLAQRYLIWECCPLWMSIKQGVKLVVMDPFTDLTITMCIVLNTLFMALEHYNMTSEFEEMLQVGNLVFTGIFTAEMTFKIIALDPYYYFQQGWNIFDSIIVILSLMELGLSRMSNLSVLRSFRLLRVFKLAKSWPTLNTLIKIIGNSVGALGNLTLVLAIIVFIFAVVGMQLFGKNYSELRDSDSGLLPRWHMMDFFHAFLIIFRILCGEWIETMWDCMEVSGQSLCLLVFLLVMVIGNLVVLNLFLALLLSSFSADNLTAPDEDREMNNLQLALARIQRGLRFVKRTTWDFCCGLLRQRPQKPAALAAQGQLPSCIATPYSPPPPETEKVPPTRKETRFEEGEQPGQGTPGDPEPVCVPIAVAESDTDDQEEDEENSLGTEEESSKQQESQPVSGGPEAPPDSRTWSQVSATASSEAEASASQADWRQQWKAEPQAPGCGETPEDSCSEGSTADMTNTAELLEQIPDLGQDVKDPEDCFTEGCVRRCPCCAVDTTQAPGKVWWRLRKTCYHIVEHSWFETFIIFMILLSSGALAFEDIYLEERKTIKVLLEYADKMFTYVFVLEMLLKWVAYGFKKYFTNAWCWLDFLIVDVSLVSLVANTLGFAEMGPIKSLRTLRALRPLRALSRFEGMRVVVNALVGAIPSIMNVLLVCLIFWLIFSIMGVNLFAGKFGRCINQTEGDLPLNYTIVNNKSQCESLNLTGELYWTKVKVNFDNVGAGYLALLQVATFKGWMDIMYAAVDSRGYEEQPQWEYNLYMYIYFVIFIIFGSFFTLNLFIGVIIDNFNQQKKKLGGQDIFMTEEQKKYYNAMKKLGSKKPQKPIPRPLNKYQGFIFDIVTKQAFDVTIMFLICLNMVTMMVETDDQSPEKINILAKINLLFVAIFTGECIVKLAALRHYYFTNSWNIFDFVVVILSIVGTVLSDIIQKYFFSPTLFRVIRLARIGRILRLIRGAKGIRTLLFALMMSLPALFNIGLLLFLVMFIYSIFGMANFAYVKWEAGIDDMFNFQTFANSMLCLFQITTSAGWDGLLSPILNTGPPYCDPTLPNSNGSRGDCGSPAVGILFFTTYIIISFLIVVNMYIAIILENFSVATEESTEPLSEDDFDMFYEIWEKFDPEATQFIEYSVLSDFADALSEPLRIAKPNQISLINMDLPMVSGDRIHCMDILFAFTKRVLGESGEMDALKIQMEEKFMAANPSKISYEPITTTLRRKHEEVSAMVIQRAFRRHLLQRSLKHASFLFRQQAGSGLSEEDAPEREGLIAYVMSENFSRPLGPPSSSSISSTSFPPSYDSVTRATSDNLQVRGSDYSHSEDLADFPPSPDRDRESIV

Regarding `CC(/C=C1\SC(=S)N(CC(=O)O)C1=O)=C\c1ccccc1`, the AC50 (as a rule, the concentration giving half of the maximal activity seen) at Mu-type opioid receptor is above 30 µM.
On to `CC1(C)S[C@@H]2[C@H](NC(=O)[C@H](N)c3ccc(O)cc3)C(=O)N2[C@H]1C(=O)O` [AMOXICILLIN], for which the AC50 in assay [1] is above 30 µM; in assay [2], above 30 µM; on Mu-type opioid receptor, above 30 µM; in assay [3] it was above 10 µM; at Androgen receptor, above 30 µM.
As for `O=C1CN2Cc3c(ccc(Cl)c3Cl)N=C2N1` [ANAGRELIDE], the AC50 in assay [4] and in assay [3] was above 10 µM in each case.
Turning to `CNCC[C@@H](Oc1ccccc1C)c1ccccc1` [ATOMOXETINE], the results for the concentration at half-maximal activity (AC50) (in assay [4]; at Mu-type opioid receptor; on Androgen receptor) were above 30 µM, 18 µM and above 30 µM, respectively.
For the molecule `Cc1ccc([C@@H]2O[C@H](CO)[C@@H](O)[C@H](O)[C@H]2O)cc1Cc1ccc(-c2ccc(F)cc2)s1` [CANAGLIFLOZIN ANHYDROUS], the AC50 in assay [2] was above 50 µM.
Consider `CO/N=C(\C(=O)N[C@@H]1C(=O)N2C(C(=O)O)=C(COC(N)=O)CS[C@H]12)c1ccco1` [CEFUROXIME], for which the AC50 (in assay [5]; in assay [4]; on Mu-type opioid receptor) was above 30 µM throughout.
With `[H]/N=C(\N/C(=N/[H])NCCCCCCNC(=N)NC(=N)Nc1ccc(Cl)cc1)Nc1ccc(Cl)cc1` [CHLORHEXIDINE], the AC50 in assay [4] was 7.8 µM; at Mu-type opioid receptor, above 10 µM.
`Clc1cccc(Cl)c1N=C1NCCN1` [CLONIDINE]: the AC50 in assay [1] was above 30 µM; in assay [3], above 10 µM.
The matching figures for `CN1C[C@H](C(=O)N[C@]2(C)O[C@@]3(O)[C@@H]4CCCN4C(=O)[C@H](Cc4ccccc4)N3C2=O)C[C@@H]2c3cccc4[nH]cc(c34)C[C@H]21` [DIHYDROERGOTAMINE]: above 30 µM and 0.0126 µM.
On to `CNCC[C@H](Oc1cccc2ccccc12)c1cccs1` [DULOXETINE], for which the AC50 in assay [2] was 5.3 µM; in assay [4] it was above 30 µM.
As for `CCC(=O)O[C@@H](O[P@](=O)(CCCCc1ccccc1)CC(=O)N1C[C@H](C2CCCCC2)C[C@H]1C(=O)O)C(C)C` [FOSINOPRIL], the AC50 (in assay [5]; in assay [4]; on Mu-type opioid receptor) was above 30 µM each time.
In turn, `Nc1nc(O)c2ncn(COC(CO)CO)c2n1` [GANCICLOVIR] returned an AC50 on Mu-type opioid receptor above 30 µM.
Consider `Cc1cnc(NC(=O)C2=C(O)c3ccccc3S(=O)(=O)N2C)s1` [MELOXICAM], for which the AC50 in assay [1] is above 30 µM; in assay [3] it was above 10 µM.
Take `CC(=O)/N=c1/sc(S(N)(=O)=O)nn1C` [METHAZOLAMIDE]: the AC50 (in assay [4]; at Mu-type opioid receptor) was above 30 µM in each case.
Regarding `CC[C@@H](CO)NC(=O)[C@@H]1C=C2c3cccc4[nH]cc(c34)C[C@H]2N(C)C1` [METHYLERGONOVINE], the AC50 was above 30 µM at Mu-type opioid receptor and 18 µM at Androgen receptor.
As to `CC(=O)Oc1ccccc1C(=O)Nc1ncc([N+](=O)[O-])s1` [NITAZOXANIDE], the AC50 was 13 µM in assay [4] and above 30 µM at Mu-type opioid receptor.
Regarding `CNCCC=C1c2ccccc2CCc2ccccc21` [NORTRIPTYLINE], on Mu-type opioid receptor, the concentration at half-maximal activity (AC50) is above 30 µM.
Turning to `CN(C)c1cc(CNCC(C)(C)C)c(O)c2c1C[C@H]1C[C@H]3[C@H](N(C)C)C(O)=C(C(N)=O)C(=O)[C@@]3(O)C(O)=C1C2=O` [OMADACYCLINE], the AC50 (in assay [5]; in assay [4]; on Mu-type opioid receptor; at Androgen receptor) was above 30 µM each time.
Consider `COc1ccnc(C[S+]([O-])c2nc3ccc(OC(F)F)cc3[nH]2)c1OC` (stereo not drawn) [PANTOPRAZOLE], for which the AC50 is above 30 µM in assay [1] and above 10 µM in assay [3].
Regarding `COc1ccc(Cc2nccc3cc(OC)c(OC)cc23)cc1OC` [PAPAVERINE], the AC50 on Mu-type opioid receptor and on Androgen receptor was above 30 µM in each case.
For `CNC[C@H](O)c1cccc(O)c1` [PHENYLEPHRINE], the AC50 in assay [1] was above 30 µM; in assay [2] it was above 30 µM; in assay [4] it was above 30 µM; on Mu-type opioid receptor, above 30 µM; in assay [3] it was above 10 µM.
With `CNC(=O)c1cc(Oc2ccc(NC(=O)Nc3ccc(Cl)c(C(F)(F)F)c3)c(F)c2)ccn1` [REGORAFENIB], the AC50 at Glucocorticoid receptor and on Androgen receptor was above 30 µM throughout.
In the case of `NC(=O)c1ncn([C@@H]2O[C@H](CO)[C@@H](O)[C@H]2O)n1` [RIBAVIRIN], the half-maximal activity concentration (AC50) in assay [2] was above 50 µM.
Consider `O=C(Nc1c(Cl)cncc1Cl)c1ccc(OC(F)F)c(OCC2CC2)c1` [ROFLUMILAST], for which the AC50 in assay [2] is above 50 µM; in assay [4], above 30 µM; on Mu-type opioid receptor, above 30 µM; at Androgen receptor, above 30 µM.
Turning to `CC(C)N(CCCCOCC(=O)NS(C)(=O)=O)c1cnc(-c2ccccc2)c(-c2ccccc2)n1` [SELEXIPAG], the AC50 in assay [2] was 45 µM; in assay [4] it was above 30 µM; at Mu-type opioid receptor, above 30 µM; at Androgen receptor, above 30 µM.
Take `NC(=O)NS(=O)(=O)c1ccc(N)cc1` [SULFACARBAMIDE]: in assay [2], the AC50 is above 50 µM.
Still for that read-out and setting: to `CCCCCCCCNC(C)C(O)c1ccc(SC(C)C)cc1` (stereo not drawn) [SULOCTIDIL] belongs 7.7 µM.
In the case of `CCCCNc1ccc(C(=O)OCCN(C)C)cc1` [TETRACAINE], the AC50 in assay [1] was above 30 µM; in assay [3] it was above 10 µM.
The corresponding values for `Cn1c(=O)c2[nH]cnc2n(C)c1=O` [THEOPHYLLINE] are above 30 µM and above 10 µM.
For the molecule `CN1CCN(CCCN2c3ccccc3Sc3ccc(S(=O)(=O)N(C)C)cc32)CC1` [THIOPROPERAZINE], the AC50 in assay [5] was above 30 µM; in assay [4], 18 µM; at Mu-type opioid receptor, above 30 µM.
Consider `CC1(C)O[C@@H]2[C@@H](CO[C@@]3(COS(N)(=O)=O)OC(C)(C)O[C@@H]23)O1` [TOPIRAMATE], for which the half-maximal activity concentration (AC50) in assay [1] is above 30 µM; in assay [3] it was above 10 µM.
With `Cc1cc(CC(=O)O)n(C)c1C(=O)c1ccc(Cl)cc1` [ZOMEPIRAC], the AC50 (in assay [4]; on Mu-type opioid receptor) was above 30 µM in each case.

The values are drawn from ChEMBL document CHEMBL5291721, “A preclinical secondary pharmacology resource illuminates target-adverse drug reaction associations of marketed drugs” (Nat Commun, 2023).
